The values below come from article PMC3025922 (BMC Biology, 2010).

This assay relates to nuclear p27 in LNCaP-S14 cells. The class given is cell-based, human.
[1] abbreviates: primary screening, nuclear p27 in LNCaP-S14 cells.
Setting [2] is: primary screening, S = strong, M = medium, W = weak by Z score.

Read-outs that look alike come from different tables or passages of the source.

For `COc1ccc(S(=O)(=O)Nc2cccc3cc(C(=O)NCc4ccc(Cl)cc4)[nH]c23)cc1` [522N16], under setting [1], the “Z score (aver)” value amounted to 5.29. Also, the Clasf entry under setting [2] is “S (strong (Z score > 5))”.

Consider `CCN(CC)c1ccc(NCN2C(=O)c3ccccc3C2=O)c(C)c1` [541E03], for which the “Z score (aver)” value under setting [1] was determined as 2.75. Also, under setting [2], the Clasf result is given as “W (weak (Z score 2-3)”. `CCCCc1ccc(NC(C)=O)c(C)c1` [541G02]: the Clasf result was “S (key: S: strong (Z score > 5); M: medium (Z score 3-5); W: weak (Z score 2-3)” and the “Z score (aver)” value is reported as 7.67. Turning to `O=C(c1ccc(Cl)nc1)N(Cc1ccc(-c2cccs2)s1)C1CC1` [541H08], the “Z score (aver)” value under setting [1] is given as 2.92. Moreover, under setting [2], the Clasf result is reported as “W (weak (Z score 2-3)”. For `CC(=O)Nc1ccc(S(=O)(=O)N(Cc2ccc3c(c2)CCO3)C2CC2)cc1` [541J07] the same measures were 3.47 and “M (medium (Z score 3-5))”. The corresponding values for `CCN(C(=S)Nc1cccc(C(F)(F)F)c1)c1ccccc1` [541K01] are 4.12 and “M (medium (Z score 3-5))”. For `S=C(NCc1ccccc1)Nc1ccc(Br)cc1` [541M20] the same measures were 4.62 and “M (medium (Z score 3-5))”. Turning to `CCCCCCSc1nnc(N)s1` [541O08], the “Z score (aver)” value under setting [1] worked out at 8.05. Besides, under setting [2], the Clasf result is reported as “S (strong (Z score > 5))”. For `O=C1C(Cl)=C(N2CCC(C(=O)N3CCOCC3)CC2)C(=O)c2ccccc21` [567A03] the same measures were 6.25 and “S (strong (Z score > 5))”. Take `COc1cc(OC)c(CN2CCC(NC(=O)c3ccc(-n4nc(C(C)(C)C)cc4C(C)(C)C)cc3)C2)c(OC)c1` (stereo not drawn) [567D12]: the “Z score (aver)” value under setting [1] was 8.89. Further, the Clasf entry under setting [2] is “S (strong (Z score > 5))”. For `O=C(NC1=C(Cl)C(=O)c2ccccc2C1=O)OC1CCCCCCC1` [567K05] the same measures were 2.74 and “W (weak (Z score 2-3)”.

`O=C(OCn1ncc(Cl)c(Cl)c1=O)c1cccc(C(F)(F)F)c1` [567M11]: the “Z score (aver)” value under setting [1] was found to be 4.23. Moreover, the Clasf entry under setting [2] was “M (medium (Z score 3-5))”.

Turning to `O=C(OCn1ncc(Cl)c(Cl)c1=O)c1ccc(C(F)(F)F)cc1` [567M13], under setting [2], the Clasf result was “S (strong (Z score > 5))”. Take `O=C(NCCCn1ccnc1)OCc1ccc(C#Cc2ccccc2)s1` [567M14]: under setting [1], the “Z score (aver)” value was 2.83. In addition, the Clasf result under setting [2] is given as “W (weak (Z score 2-3)”. The corresponding values for `COc1ccc2[nH]cc(CCNC(=O)OCC3CC4CCC3C4)c2c1` (stereo not drawn) [567M20] are 4.13 and “M (medium (Z score 3-5))”. For `O=C1c2ccccc2C(=O)N1Oc1ccc([N+](=O)[O-])c([N+](=O)[O-])c1` [669F07] the same measures were 3.84 and “M (medium (Z score 3-5))”. As for `Cc1ccc(C(=O)C2C(c3ccccc3I)C(C#N)(C#N)C3c4ccccc4C=CN23)cc1` (stereo not drawn) [669K08], the “Z score (aver)” value under setting [1] is 2.72. For the same compound, the Clasf result under setting [2] is listed as “W (weak (Z score 2-3)”. With `CC(=O)C1C(c2cccc(I)c2)C(C#N)(C#N)C2C=Cc3ccccc3N12` (stereo not drawn) [669K10], the “Z score (aver)” value under setting [1] is reported as 3.55. Moreover, the Clasf result under setting [2] was “M (medium (Z score 3-5))”. For `N#CC1(C#N)C(c2cccc(I)c2)C(C(N)=O)N2C=Cc3ccccc3C21` (stereo not drawn) [669M10] the same measures were 6.90 and “S (strong (Z score > 5))”.

Consider `N#CC1(C#N)C(c2ccccc2I)C(C(=O)C23CC4CC(CC(C4)C2)C3)N2c3ccccc3C=CC21` (stereo not drawn) [669O10], for which the “Z score (aver)” value under setting [1] is reported as 6.23. Under setting [2], the Clasf result is recorded as “S (strong (Z score > 5))”. The corresponding values for `Cc1ccc(C)n1-c1ccccc1CNS(=O)(=O)c1ccc(Cl)cc1` [669P04] are 5.53 and “S (strong (Z score > 5))”. The corresponding values for `COc1ccc(C2=NN3C(C2)c2cc(Cl)ccc2OC32CCCC2)cc1` (stereo not drawn) [1157E14] are 4.67 and “M (medium (Z score 3-5))”. With `N#Cc1cc2c(nc1SCC(=O)Nc1ccccc1F)CCCCC2` [1158J04], the “Z score (aver)” value under setting [1] was 2.92. Moreover, the Clasf entry under setting [2] is on record as “W (weak (Z score 2-3)”. For `COc1ccccc1N1CCN(C(=O)CSc2nc3ccccc3c(=O)n2CCC(=O)NC2CCCCC2)CC1` [1158L12] the same measures were 2.46 and “W (weak (Z score 2-3)”.

For `CCOC(=O)C1=C(C)N=c2sc(=Cc3ccc(N(CC)CC)o3)c(=O)n2C1c1ccccc1OC` (stereo not drawn) [1158M07], under setting [1], the “Z score (aver)” value amounted to 11.51. For the same compound, under setting [2], the Clasf entry is recorded as “S (strong (Z score > 5))”.

For `COc1ccccc1C1Oc2ccc(Cl)cc2C2CC(c3ccc(Cl)cc3)=NN21` (stereo not drawn) [1158M11], the “Z score (aver)” value under setting [1] was 4.34. The Clasf result under setting [2] is “M (medium (Z score 3-5))”. As for `C=CCN1C(=O)CC(C(=O)Nc2ccc(OC)cc2)SC1=Nc1ccc(Cl)cc1` (stereo not drawn) [1158M12], the “Z score (aver)” value under setting [1] was 2.69. For the same compound, under setting [2], the Clasf entry is “W (weak (Z score 2-3)”. Turning to `CCOC(=O)C1=C(C)N=c2sc(=Cc3ccc(N4CCOCC4)o3)c(=O)n2C1c1ccc2c(c1)OCO2` (stereo not drawn) [1158O07], under setting [1], the “Z score (aver)” value is on record as 8.87. Further, the Clasf entry under setting [2] is given as “S (strong (Z score > 5))”. The corresponding values for `CC(=O)C1=C(C)NC(SCC(=O)c2ccc(Cl)cc2Cl)=C(C#N)C1c1sccc1C` (stereo not drawn) [1159B21] are 2.34 and “W (weak (Z score 2-3)”. For `O=[N+]([O-])C(=C(Cl)Sc1ccccc1)C(Cl)=C(Cl)Cl` [1159C10] the same measures were 2.72 and “W (weak (Z score 2-3)”. Regarding `COc1ccc2c(c1)OC1(C=C2)N(C)c2ccccc2C1(C)C` (stereo not drawn) [1159E12], the “Z score (aver)” value under setting [1] stood at 12.29. In addition, under setting [2], the Clasf result is recorded as “S (strong (Z score > 5))”. For `COC(=O)C1=C(N)n2c(sc(=Cc3ccc(Cl)cc3)c2=O)=C(C(=O)OC)C1c1ccc(Cl)cc1` (stereo not drawn) [1159F17] the same measures were 2.15 and “W (weak (Z score 2-3)”.

As for `N#Cc1c(N)nc(SCC(=O)NCc2ccccc2)c(C#N)c1-c1cccs1` [1159G21], the “Z score (aver)” value under setting [1] amounted to 3.48. The Clasf entry under setting [2] is given as “M (medium (Z score 3-5))”.

For `Cc1ccc(-c2cn3c([n+]2-c2ccc(C)cc2)CCCCC3)cc1` [1159I14], the “Z score (aver)” value under setting [1] is 2.49. Besides, the Clasf result under setting [2] is recorded as “W (weak (Z score 2-3)”. For `COc1ccc(Br)cc1C1CC(=O)Nc2c1ccc1ccccc21` (stereo not drawn) [1159L15] the same measures were 2.32 and “W (weak (Z score 2-3)”. The corresponding values for `COc1ccc(-c2nc3c4ccccc4c4ccccc4c3[nH]2)c(OC)c1` [1160C13] are 2.90 and “W (weak (Z score 2-3)”.

As to `O=C1C2C3c4ccccc4C(CO)(c4ccccc43)C2C(=O)N1c1ccc(Br)cc1` (stereo not drawn) [1160E22], under setting [1], the “Z score (aver)” value amounted to 2.44. In addition, the Clasf entry under setting [2] is on record as “W (weak (Z score 2-3)”. As for `COc1cc(C(=O)N2c3ccc(C)cc3-c3c(ssc3=S)C2(C)C)cc(OC)c1OC` [1160F11], the “Z score (aver)” value under setting [1] was 3.09. The Clasf entry under setting [2] is recorded as “M (medium (Z score 3-5))”. The corresponding values for `CCNC(=O)C=C1NC(C)(C)Cc2c1ccc1ccccc21` [1160G14] are 2.31 and “W (weak (Z score 2-3)”. The corresponding values for `Sc1nnc2c3ccccc3n(CCc3ccccc3)c2n1` [1160H09] are 2.51 and “W (weak (Z score 2-3)”.

Turning to `CN(C)c1ccc(C=CC=CC23NC(=O)CN2c2ccccc2C3(C)C)cc1` (stereo not drawn) [1160J08], the “Z score (aver)” value under setting [1] worked out at 4.94. Also, the Clasf result under setting [2] is given as “M (medium (Z score 3-5))”. For `N#CC1=C(N)C(C#N)(C#N)C(c2ccc(Br)cc2)C2CN(Cc3ccccc3)CC=C12` (stereo not drawn) [1160K18] the same measures were 2.90 and “W (weak (Z score 2-3)”. For `COc1ccccc1C(=O)N1c2ccccc2Sc2ccccc21` [1160M09] the same measures were 2.71 and “W (weak (Z score 2-3)”. The corresponding values for `Cc1ccc(C)c2c1-c1ccccc1S(=O)(=O)N2S(=O)(=O)c1ccccc1` [1160M11] are 2.11 and “W (weak (Z score 2-3)”. Turning to `Cc1nc(NCCc2c[nH]c3ccccc23)cc(-c2ccc(F)cc2)n1` [1306E02], under setting [1], the “Z score (aver)” value came out at 3.02. Besides, under setting [2], the Clasf entry is given as “M (medium (Z score 3-5))”. `CCN(CC)c1cc(-c2ccc(F)cc2)nc(-c2ccncc2)n1` [1306I06]: the “Z score (aver)” value under setting [1] was found to be 3.11. Under setting [2], the Clasf result was “M (medium (Z score 3-5))”. For `Fc1ccc(-c2cc(NCc3ccc(Cl)cc3)nc(-c3ccncc3)n2)cc1` [1306I08] the same measures were 3.44 and “M (medium (Z score 3-5))”. For `COC(=O)c1c(-c2c(Cl)cccc2Cl)noc1C=CN(C)C` [1306I21] the same measures were 4.49 and “M (medium (Z score 3-5))”. For `Fc1ccc(-c2cc(NC3CC3)nc(-c3ccncc3)n2)cc1` [1306K08] the same measures were 3.56 and “M (medium (Z score 3-5))”.

Consider `CCCN1CCC(N(C(=O)c2cccc(C(F)(F)F)c2)c2ccc3[nH]c(C(C)(C)C)cc3c2)CC1` [1306L20], for which, under setting [1], the “Z score (aver)” value worked out at 6.78. Under setting [2], the Clasf result was “S (strong (Z score > 5))”. The corresponding values for `CCC1(O)C(=O)OCc2c1cc1n(c2=O)Cc2cc3c(O)cccc3nc2-1` (stereo not drawn) [1361B06] are 7.99 and “S (strong (Z score > 5))”. The corresponding values for `C=CCNC1=C2CC(C)CC(OC)C(O)C(C)C=C(C)C(OC(N)=O)C(OC)C=CC=C(C)C(=O)NC(=CC1=O)C2=O` (stereo not drawn) [1361H16] are 3.92 and “M (medium (Z score 3-5))”. For `COC1=CC(C)=CC(C)C(O)C(C)CC(C)=CC=CC(OC)C(C(C)C(O)C(C)C2CC(O)C(C)C(C(C)C)O2)OC1=O` (stereo not drawn) [1361J12] the same measures were 4.65 and “M (medium (Z score 3-5))”.
